{"source": "patent US20260200923A1", "about": "“HETEROCYCLIC COMPOUNDS TARGETING THE NUDT5 PROTEIN” (Oxford University Innovation Limited, priority 2022, published 2026)", "key": {"[1]": {"tested_on": "HAP1 cells", "test": "untargeted global proteomics", "assay_type": "cell-based, human", "details": "100 nM, 6 and 24 h", "procedure": "Proteomics samples were digested with trypsin using STrap columns following the manufacturer's protocol (C02-micro, ProtiFi). For untargeted global proteomics HAP1 cells were treated with DMSO or 100 nM dNUDT5 for 6 h or 24 h. Then, the cell pellets were collected and lysed in 5% SDS containing 1 μL/mL benzonase (E1014, Millipore) and subsequent short sonication to shear genomic DNA (1× 2 s pulse, 20% amplitude, microtip, Sonics Vibra Cell). 50 μg protein from the total cell lysate or 80% of the elution fraction of the chemical pulldown were first reduced by 20 mM dithiothreitol (M02712, Fluorochem), and alkylated by 40 mM iodoacetamide (I1149, Sigma). Phosphoric acid and S-Trap protein binding buffer were added into the sample lysates. Then, the SDS lysate/S-Trap buffer were loaded into a S-Trap column (C02-micro-80, ProtiFi). 1 μg of trypsin (V5111, Promega) was used to digest each sample at 37° C. for 20 h. The samples were then eluted and dried by vacuum centrifugation. […]\nRaw data were searched against the human database (UP000005640, downloaded 08/21) using DIA-NN (Demichev et al. 2020 Nature Methods) by enabling FASTA digest for library free search and Deep learning-based spectra, RTs and IMs prediction. […] The protein groups matrix was further analysed using Perseus (1.6.2.1) or R studio (4.1.1). […] Proteins were removed if detected less than 2 times in each group. […]"}, "[2]": {"tested_on": "MTHFD1^K56R cells", "test": "growth of MTHFD1^K56R cells in adenosine-containing media", "assay_type": "cell-based", "details": "72 h", "procedure": "(§1) HAP1 (KBM7-derived, Horizon Discovery, C859), and HAP1 MTHFD1^KO, MTHFD1^K56R, and MTHFD1^K386E cell lines were cultured in Iscove's Modified Dulbecco's Medium (IMDM, Sigma), supplemented with 10% Fetal Bovine Serum (FBS, Sigma) and 1% Penicillin/Streptomycin (P/S, Sigma).\n(§2) MTHFD1^KO cells in dialyzed FBS media were treated with a single nucleotide or folic acid metabolite for 72 hours. Cells were then stained with Hoechst, imaged, and counted using an Operetta (Perkin Elmer). For the AMPK activator studies, cells were stained with Hoechst, imaged, and counted using an Opera (Perkin Elmer). Similarly, MTHFD1^K56R cells in dialyzed FBS media were treated with adenosine for 72 hours. Cells were then stained with Hoechst, imaged, and counted using an Operetta (Perkin Elmer)."}, "[3]": {"tested_on": "HAP-1 cells", "test": "6-thioguanine assay (CellTiter-Glo viability)", "assay_type": "cell-based", "details": "0.2 μg/ml 6-thioguanine, 72 h; HAP1 (and NB4, FIG. 11)", "procedure": "NB-4 and HAP1 cells (1000 cells/well in 40 uL) were seeded onto a 384-well plate containing compounds. DMSO or 0.2 μg/ml 6-thioguanine (A4882, Sigma-Aldrich) was added into respective wells. After 72 h incubation cell viability was measured by using CellTiter-Glo 2.0 Assay (G9242, Promega). Compounds in the 384-well plates were prepared by using Echo Acoustic Dispenser."}, "[4]": {"target": "T1, NUDT5 (Homo sapiens, UniProt Q9UKK9)", "test": "NUDT5 degradation by Western blot in HEK293 cells", "assay_type": "cell-based", "design": "endogenous in cells; host or cells: HEK293 (also CRBN knock-out HEK293 for A13)", "procedure": "For Western blots, proteins were separated on polyacrylamide gels with SDS running buffer (50 mM Tris, 380 mM Glycine, 7 mM SDS) and transferred to PVDF membranes. All membranes were then blocked with blocking buffer (5% w/v milk powder, BioRad) in TBST (50 mM Tris (tris(hydroxymethylaminomethane), 150 mM NaCl, 0.05% (v/v) Tween 20, adjusted to pH 7.6) Proteins were probed with antibodies against phospho-AMPK (50081S, 1:2000, Cell Signaling Technologies), AMPK (5832S, 1:2000, Cell Signaling Technologies), PML (ab179466, 1:1000, abeam), PARP8 (NBP213733, 1:1000, Novus Biologicals), ATF2/7 (82870, 1:1000, Cell Signaling Technologies), alpha-Tubulin (ab7291, 1:1000, Abeam), phospho-UBTF (ab182583, 1:1000, abeam), UBTF (HPA006385, 1:1000, Sigma), RBM38 (AV40862, 1:1000, Sigma), or NUDT5 (ab129172, 1:1000, abeam), detected by HRP (horse-radish peroxidase) conjugated donkey anti-rabbit IgG antibody (Pierce) or donkey anti-mouse antibody IgG antibody (Pierce) and visualized with Clarity ECL Western Blotting substrate (BioRad), according to provided protocol."}, "[5]": {"target": "T1, NUDT5", "test": "CRBN knock-out experiment, NUDT5 degradation", "assay_type": "cell-based", "design": "endogenous in cells; host or cells: HEK293 (also CRBN knock-out HEK293 for A13)", "details": "CRBN knock-out HEK293 cells, 20 h"}, "[6]": {"tested_on": "WT HAP1 cells", "test": "growth of WT HAP1 cells", "assay_type": "cell-based", "details": "72 h", "procedure": "as §1, §2"}, "[7]": {"target": "T2, luciferase-tagged NUDT5 (Homo sapiens, UniProt Q9UKK9)", "T2 construct": "expressed in transfected cells; host or cells: HEK293T", "test": "NanoBRET target engagement assay", "assay_type": "cell-based", "details": "live cells, 2 h", "procedure": "For NanoBRET target engagement assay, intracellular TE Nano-Glo substrate/inhibitor (N2161, Promega) was used according to the manufacturer's instruction. In brief, 200,000 HEK293T cells/ml was seeded in a T-75 flask. N-terminal NanoLuciferse NUDT5 was reverse transfected into the cells using Fugene HD transfection reagent (E2312, Promega). After 24 h the transfected HEK293 (200,000 cells/ml) were replated onto a 384-well plate containing compounds. 2.5 nM NU008116a was used as the final tracer concentration. After 2 h, NanoLuc substrate and inhibitor was added into each well and the signals were measured by PHERAstar Microplate Reader.\nCompounds were dispensed in the 384-well plates by using Echo Acoustic Dispenser."}}}
{"smiles": "Cn1c(=O)c2c(nc(N3CCN(C(=O)N4CCC(CN5CCN(c6ccc7c(c6)C(=O)N(C6CCC(=O)NC6=O)C7=O)CC5)CC4)CC3)n2Cc2nnc(-c3ccc(Cl)c(Cl)c3)o2)n(C)c1=O", "note": "(stereo not drawn) [dNUDT5, 7-((5-(3,4-dichlorophenyl)-1,3,4-oxadiazol-2-yl)methyl)-8-(4-(4-((4-(2-(2,6-dioxopiperidin-3-yl)-1,3-dioxoisoindolin-5-yl)piperazin-1-yl)methyl)piperidine-1-carbonyl)piperazin-l-yl)-1,3-dimethyl-3,7-dihydro-1H-purine-2,6-dione]", "values": [{"measurement": "proteome-wide specificity of degradation", "setting": "[1]", "result": "highly specific for NUDT5 with no other protein being degraded"}, {"measurement": "concentration of maximum rescue of cell viability", "setting": "[2]; adenosine supplementation", "result": 100, "unit": "nM"}, {"measurement": "effect on adenosine toxicity / viability", "setting": "[2]; adenosine-containing media", "result": "prevented adenosine toxicity"}, {"measurement": "rescue of 6-TG toxicity", "setting": "[3]", "result": "able to rescue 6-TG toxicity"}, {"measurement": "NUDT5 degradation at 100 nM, 20 h (%)", "setting": "[4]; 100 nM, 20 h", "result": 96, "unit": "%"}, {"measurement": "concentration beyond which degradation efficiency declines (hook effect)", "setting": "[4]; HEK293 and HAP-1 cells", "result": "> 300", "unit": "nM"}, {"measurement": "DC50", "setting": "[4]; HEK293 cells", "result": 0.5, "unit": "nM"}, {"measurement": "dependence of NUDT5 degradation (rescue experiments)", "setting": "[4]; competition with TH5427, MLN4924, MG132, HEK293 cells", "result": "E3 ligase- and proteasome-dependent"}, {"measurement": "dependence of degradation on E3 ligase", "setting": "[5]", "result": "E3-ligase-dependant"}, {"measurement": "effect on viability of WT cells", "setting": "[6]", "result": "did not affect the viability of WT cells"}, {"measurement": "NUDT5 engagement / recruitment", "setting": "[7]", "result": "engaged their cognate target NUDT5 in live cells"}]}
